Results: US8278319B2, “Substituted spiroamine compounds” (Gruenenthal GmbH, priority 2008, dated 2012)

Key:
human B1R = target: T1, human B1R (Homo sapiens, UniProt P46663); test: Functional investigation on the bradykinin receptor 1 (B1R), FLIPR Ca2+ assay, hB1R cells; type: cell-based; settings: % inhibition human B1R at 10 μM; CHO K1 cells transfected with human B1R; agonist Lys-Des-Arg9 bradykinin at EC80; read-out: % Inh. (hum. B1R) 10 μM
T1 construct: expressed in transfected cells; host or cells: CHO K1 cells
T1 sequence (P46663 1-353): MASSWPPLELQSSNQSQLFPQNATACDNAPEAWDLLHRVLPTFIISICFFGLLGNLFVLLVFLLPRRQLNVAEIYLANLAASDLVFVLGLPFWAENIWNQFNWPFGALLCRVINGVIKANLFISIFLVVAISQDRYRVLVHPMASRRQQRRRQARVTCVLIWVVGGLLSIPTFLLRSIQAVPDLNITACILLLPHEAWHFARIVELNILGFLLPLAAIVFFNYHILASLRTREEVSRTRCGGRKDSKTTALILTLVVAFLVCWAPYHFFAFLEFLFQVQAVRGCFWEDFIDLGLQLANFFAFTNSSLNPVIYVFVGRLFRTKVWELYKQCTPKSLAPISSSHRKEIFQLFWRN
Procedure: (§1) The agonistic or antagonistic action of substances can be quantified on the bradykinin receptor 1 (B1R) of the human and rat species with ectopically expressing cell lines (CHO K1 cells) and with the aid of a Ca^2+-sensitive dye (Fluo-4) using a fluorescent imaging plate reader (FLIPR). The indication in % activation is based on the Ca^2+ signal after addition of Lys-Des-Arg^9 bradykinin (0.5 nM) or Des-Arg^9 bradykinin (100 nM). Antagonists lead to a suppression of the Ca^2+ influx following administration of the agonist. The % inhibition in comparison with the maximum achievable inhibition is indicated.
(§2) The agonistic or antagonistic action of substances can be determined on the bradykinin 1 receptor (B1R) of the human and rat species with the following assay. According to this assay, the Ca^2+ inflow through the channel is quantified with the aid of a Ca^2+-sensitive dye (Fluo-4 type, Molecular Probes Europe BV, Leiden, The Netherlands) in a fluorescent imaging plate reader (FLIPR, Molecular Devices, Sunnyvale, USA).
(§3) Chinese hamster ovary cells (CHO K1 cells) which are stably transfected with the human B1R gene (hB1R cells) or the B1R gene of the rat (rB1R cells) are used. For functional investigations, these cells are plated-out onto black 96-well plates with a clear base (BD Biosciences, Heidelberg, Germany or Greiner, Frickenhausen, Germany) in a density of 20,000-35,000 cells/well. Overnight, the cells are incubated at 37° C. and 5% CO2 in culture medium (hB1R cells: Nutrient Mixture Ham's F12, Gibco Invitrogen GmbH, Karlsruhe, Germany or DMEM, Sigma-Aldrich, Taufkirchen, Germany; rB1R cells: D-MEM/F12, Gibco Invitrogen, Karlsruhe, Germany) with 10 vol. % FBS (foetal bovine serum, Gibco Invitrogen GmbH, Karlsruhe, Germany or PAN Biotech GmbH, Aidenbach, Germany). On the following day the cells are loaded with 2.13 μM Fluo-4 (Molecular Probes Europe BV, Leiden, The Netherlands) in HBSS buffer (Hank's buffered saline solution, Gibco Invitrogen GmbH, Karlsruhe, Germany) with 2.5 mM probenecid (Sigma-Aldrich, Taufkirchen, Germany) and 10 mM HEPES (Sigma-Aldrich, Taufkirchen, Germany) for 60 min at 37° C. The plates are the washed twice with HBSS buffer, and HBSS buffer which additionally contains 0.1% BSA (bovine serum albumin; Sigma-Aldrich, Taufkirchen, Germany), 5.6 mM glucose and 0.05% gelatine (Merck KGaA, Darmstadt, Germany) is added. After a further incubation of 20 minutes at room temperature, the plates are inserted into the FLIPR for Ca^2+ measurement. Alternatively they are washed with buffer A (15 mM HEPES, 80 mM NaCl, 5 mM KCl, 1.2 mM CaCl2, 0.7 mM MgSO4, 2 g/l glucose, 2.5 mM probenecid) and loaded with buffer A with added 2.5 μM Fluo-4 and 0.025% Pluronic F127 (Sigma-Aldrich, Taufkirchen, Germany). The cells are then washed twice with buffer A and incubated for 30 minutes with buffer A, which additionally contains 0.05% BSA and 0.05% gelatine, at room temperature and then used for Ca^2+ measurement in the FLIPR.
(§4) The Ca^2+-dependent fluorescence is measured here before and after addition of substances (λex=488 nm, λem=540 nm). The quantification is performed by measuring the highest fluorescence intensity (FC, fluorescence counts) over time.
(§5) The FLIPR protocol comprises two additions of substance. Test substances (10 μM) are first pipetted onto the cells and the Ca^2+ inflow is compared with the control (hB1R: Lys-Des-Arg^9 bradykinin>=50 nM; rB1R: Des-Arg^9 bradykinin 10 μM). The value in % activation based on the Ca^2+ signal after addition of Lys-Des-Arg^9 bradykinin (>=50 nM) or Des-Arg^9 bradykinin (10 μM) is obtained therefrom. After incubation for 10-20 minutes, Lys-Des-Arg^9 bradykinin (hB1R) or Des-Arg^9 bradykinin (rB1R) is applied in the EC80 concentration and the inflow of Ca^2+ is likewise determined. Antagonists lead to a suppression of the Ca^2+ inflow. The % inhibition in comparison with the maximum achievable inhibition is calculated. […]

rat B1R = target: T2, rat B1R (Rattus norvegicus, UniProt P97583); test: Functional investigation on the bradykinin receptor 1 (B1R), FLIPR Ca2+ assay, rB1R cells; type: cell-based; settings: % inhibition rat B1R at 10 μM; CHO K1 cells transfected with rat B1R; agonist Des-Arg9 bradykinin at EC80; read-out: % Inh. (rat B1R) 10 μM
T2 construct: expressed in transfected cells; host or cells: CHO K1 cells
T2 sequence (P97583 1-337): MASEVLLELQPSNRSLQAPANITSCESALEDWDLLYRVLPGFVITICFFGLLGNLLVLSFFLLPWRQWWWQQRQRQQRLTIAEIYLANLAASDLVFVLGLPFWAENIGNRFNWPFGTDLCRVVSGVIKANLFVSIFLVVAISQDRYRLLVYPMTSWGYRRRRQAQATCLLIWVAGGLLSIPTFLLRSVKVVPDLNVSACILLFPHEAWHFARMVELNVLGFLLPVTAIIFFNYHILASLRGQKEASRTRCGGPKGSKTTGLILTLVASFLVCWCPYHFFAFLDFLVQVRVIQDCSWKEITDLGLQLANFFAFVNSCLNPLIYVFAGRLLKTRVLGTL
Procedure: as §1, §2, §3, §4, §5

Question: Which results are given for COc1cc(C)c(S(=O)(=O)N2CCCC[C@H]2COCC(=O)N2CCC3(CC2)CCC(c2ccccc2)(N2CC(F)(F)C2)CC3)c(C)c1 [Compound 13, 1-(9-(3,3-Difluoroazetidin-1-yl)-9-phenyl-3-azaspiro[5.5]undecan-3-yl)-2-(((S)-1-(4-methoxy-2,6-dimethylphenylsulfonyl)piperidin-2-yl)methoxy)ethanone]?
Answer: inhibition at 10 µM (human B1R): 86%; inhibition at 10 µM (rat B1R): 104%
